# Test results: US6180388A, “Enzymes and micro organisms with amidase activity which hydrolyze polyamides” (Rhone-Poulenc Fibres et Polymeres S.A., priority 1995, dated 2001)
# Assays:
# [1] = tested on: Comamonas acidovorans N 12; assay: Enzymatic hydrolysis of PA 6.6 oligomers, activity of the wild-type microorganism; assay type: cell-based; settings: 28° C., 10.5 mmol/l phosphate buffer pH 7.5
# Excerpt: 2.2 ENZYMATIC HYDROLYSIS--MEASUREMENT OF ACTIVITY OF THE WILD-TYPE MICROORGANISM: […]
# [2] = polyamide 66 labeled with carbon 14; cited from earlier work
molecule,measurement,setting,value
O=C(O)CCCCC(=O)NCCCCCCNC(=O)CCCCC(=O)O [ABA],hydrolysis ABA → AB + A,[1]; substrate 2.6 g/l,215 mg of AB/h.g of dry cells
NCCCCCCNC(=O)CCCCC(=O)NCCCCCCNC(=O)CCCCC(=O)O [ABAB],hydrolysis ABAB → BAB + A,[1]; substrate 1.4 g/l,410 mg of BAB/h.g of dry cells
trypsin [reference compound],degradation of polyamide 66,[2],degrade polyamide 66 slightly
NCCCCCCNC(=O)CCCCC(=O)O [AB],hydrolysis AB → A + B,[1]; substrate 1.4 g/l,280 mg of A/h.g of dry cells
"papain: known enzyme of the prior art (protein, UniProt P00784 134-345, looked up) Papain: IPEYVDWRQKGAVTPVKNQGSCGSCWAFSAVVTIEGIIKIRTGNLNEYSEQELLDCDRRSYGCNGGYPWSALQLVAQYGIHYRNTYPYEGVQRYCRSREKGPYAAKTDGVRQVQPYNEGALLYSIANQPVSVVLEAAGKDFQLYRGGIFVGPCGNKVDHAVAAVGYGPNYILIKNSWGTGWGENGYIRIKRGTGNSYGVCGLYTSSFYPVKN",degradation of polyamide 66,[2],degrade polyamide 66 slightly
